Data: ChEMBL document CHEMBL1201862, “PubChem BioAssay data set” (2004)
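Compound exposure: 48 hours, 5 concentrations, 96-well plates. GI50 = concentration required for 50% inhibition of growth.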 The source made the active and inactive calls. Rule as the data show it: active = GI50 up to about 1.1 µM and inactive = higher.

How the values were obtained:
Experiment in all cases: NCI anticancer screen, dose series, 48 h
CAKI-1 = test system: CAKI-1
MDA-MB-435 = test system: MDA-MB-435
SK-MEL-5 = test system: SK-MEL-5
UO-31 = test system: UO-31
EKVX = test system: EKVX
MCF7 = test system: MCF7
SR = test system: SR
SN12C = test system: SN12C
HT-29 = test system: HT-29
IGROV-1 = test system: IGROV-1
UACC-257 = test system: UACC-257
U-251 = test system: U-251
PC-3 = test system: PC-3
SNB-19 = test system: SNB-19
SF-295 = test system: SF-295
NCI-H460 = test system: NCI-H460
ACHN = test system: ACHN
OVCAR-4 = test system: OVCAR-4
LOX IMVI = test system: LOX IMVI
M14 = test system: M14
NCI-H226 = test system: NCI-H226
MOLT-4 = test system: MOLT-4
HCC 2998 = test system: HCC 2998
RXF 393 = test system: RXF 393
BT-549 = test system: BT-549
NCI-H23 = test system: NCI-H23
HOP-62 = test system: HOP-62
SK-OV-3 = test system: SK-OV-3
A498 = test system: A498
T47D = test system: T47D
SNB-75 = test system: SNB-75
HCT-15 = test system: HCT-15
OVCAR-5 = test system: OVCAR-5
K562 = test system: K562
COLO 205 = test system: COLO 205
DU-145 = test system: DU-145
SF-268 = test system: SF-268
NCI/ADR-RES = test system: NCI/ADR-RES
SF-539 = test system: SF-539
OVCAR-8 = test system: OVCAR-8
SK-MEL-2 = test system: SK-MEL-2
SK-MEL-28 = test system: SK-MEL-28
UACC-62 = test system: UACC-62
786-0 = test system: 786-0
TK-10 = test system: TK-10
A549 = test system: A549
MDA-MB-231 = test system: MDA-MB-231
HCT-116 = test system: HCT-116
MDA-N = test system: MDA-N
KM12 = test system: KM12
HOP-92 = test system: HOP-92
SW-620 = test system: SW-620
RPMI-8226 = test system: RPMI-8226
OVCAR-3 = test system: OVCAR-3

Measured: GI50

O=c1[nH]nc(Cn2c3ccc(Br)cc3c3nc4ccccc4nc32)n1C1CCCCC1
active: LOX IMVI < 0.01 µM | MOLT-4 < 0.01 µM
> 100 µM: HCT-15
inactive: CAKI-1 > 100 µM | MDA-MB-435 28.1 µM | SK-MEL-5 36.9 µM | UO-31 > 100 µM | EKVX 90.8 µM | MCF7 43.7 µM | SR 2.08 µM | SN12C > 100 µM | HT-29 36.1 µM | IGROV-1 > 100 µM | UACC-257 26.2 µM | U-251 30.5 µM | PC-3 16.2 µM | SNB-19 > 100 µM | SF-295 32.7 µM | NCI-H460 29.4 µM | ACHN > 100 µM | OVCAR-4 18.6 µM | M14 35.1 µM | NCI-H226 59.4 µM | HCC 2998 54.6 µM | RXF 393 23.8 µM | BT-549 42.3 µM | NCI-H23 12.9 µM | HOP-62 17.7 µM | SK-OV-3 87.1 µM | A498 32.3 µM | T47D 57.9 µM | SNB-75 > 100 µM | OVCAR-5 34.2 µM | K562 20.7 µM | COLO 205 3.9 µM | DU-145 32 µM | SF-268 40 µM | NCI/ADR-RES > 100 µM | SF-539 13.3 µM | OVCAR-8 12.8 µM | SK-MEL-2 60.7 µM | SK-MEL-28 19.3 µM | UACC-62 21.5 µM | 786-0 25.2 µM | TK-10 29.8 µM | A549 43.6 µM | MDA-MB-231 > 100 µM | HCT-116 70.1 µM | MDA-N 75.3 µM | KM12 54 µM | HOP-92 46.3 µM | SW-620 52.7 µM | RPMI-8226 21.3 µM | OVCAR-3 23.3 µM
